Test results published in patent publication US11053226B2, “KRAS G12C inhibitors and methods of using the same” (Amgen Inc., priority 2018, dated 2021).
Read-outs that look alike come from different tables or passages of the source.

Assays:
[1] = tested on: Phosphorylation of ERK1/2 in MIA PaCa-2 cells; experiment: Phospho-ERK1/2 MSD Assay; format: cell-based; conditions: Homo sapiens, MiaPaCa-2 cells
[2] = biological target: GDP-bound KRAS protein (aa 1-169), containing both G12C and C118A amino acid substitutions (Homo sapiens (Human), UniProt P01116, C118A/G12C); experiment: Coupled Nucleotide Exchange Assay; format: biochemical
Chain of GDP-bound KRAS protein (aa 1-169), containing both G12C and C118A amino acid substitutions (P01116 other isoform, or with tags, fused parts or gaps G12C/C118A): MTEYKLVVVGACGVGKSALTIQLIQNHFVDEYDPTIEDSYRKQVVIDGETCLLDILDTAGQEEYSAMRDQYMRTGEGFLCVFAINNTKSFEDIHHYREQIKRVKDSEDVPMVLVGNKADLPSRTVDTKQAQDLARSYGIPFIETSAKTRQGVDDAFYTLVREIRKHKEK
Experimental: For compounds in Table 9, the following assay conditions were employed:
Coupled Nucleotide Exchange Assay:
The assay plates were then read on a PerkinElmer EnVision Multilabel Reader, using AlphaScreen® technology, and data were analyzed using a 4-parameter logistic model to calculate IC50 values.

[3] = tested on: Phosphorylation of ERK1/2 in A549 cells; experiment: Phospho-ERK1/2 MSD Assay (A549); format: cell-based; conditions: Homo sapiens
[4] = MIA PaCa-2, 4 h, read-out: pERK IC50 (4 h, MiaPaCa-2), 4 h compound treatment
[5] = read-out: Coupled Exchange IC50 (2 h), 2 h compound pre-incubation
[6] = read-out: Coupled Exchange IC50 (20 h), 20 h compound pre-incubation
[7] = A549, 4 h, read-out: pERK IC50 (4 h, A549), 4 h compound treatment
[8] = MIA PaCa-2, read-out: pERK IC50 (4 h), 4 h compound treatment
[9] = read-out: pERK IC50 (4 h), 4 h compound treatment

C=CC(=O)N1CC(N(C)C(=O)Cn2c(C)c(C(=O)N3CCN(c4ccc([N+](=O)[O-])cn4)CC3)c3cc(Br)ccc32)C1 [Example 38]
IC50 [1, 4]: 3.33 µM
IC50 [2, 5]: 0.76 µM
IC50 [2, 6]: 0.22 µM
IC50 [3, 7]: > 100 µM

COc1cccc2c1CCN(C(=O)c1cn(CC(=O)NC3CN(C(=O)/C=C/CN(C)C)C3)c3ccc(Br)cc13)C2 [Example 149]
IC50 [1, 4]: 50.7 µM
IC50 [2, 5]: 3.6 µM
IC50 [2, 6]: 0.68 µM
IC50 [3, 7]: > 100 µM

C=CC(=O)N1CC(NC(=O)Cn2cc(I)c3cc(Br)cc(C)c32)C1 [Example 153]
IC50 [1, 8]: 51.8 µM
IC50 [2, 5]: 1.58 µM
IC50 [2, 6]: 0.26 µM
IC50 [3, 9]: > 100 µM

C=CC(=O)N1CC(NC(=O)Cn2c(CC)c(C(=O)N3CCN(c4ccc(C#N)cn4)C[C@H]3C)c3cc(Cl)cc(C)c32)C1 [Example 1-3, 2-(5-Chloro-3-(((2R)-4-(5-cyano-2-pyridinyl)-2-methyl-1-piperazinyl)carbonyl)-2-ethyl-7-methyl-1H-indol-1-yl)-N-(1-(2-propenoyl)-3-azetidinyl)acetamide]
IC50 [1, 4]: 1.31 µM
IC50 [2, 5]: 0.15 µM
IC50 [3, 7]: > 100 µM

C=CC(=O)N1CC(NC(=O)Cn2c(C(=O)NCc3ccccc3)cc3cc(Br)ccc32)C1 [Example 164]
IC50 [1, 8]: > 100 µM
IC50 [2, 5]: 10.7 µM
IC50 [2, 6]: 1.11 µM
IC50 [3, 9]: > 100 µM

C=CC(=O)N1CC(NC(=O)C(C)(C)n2c(C)c(C(=O)N3CCc4c(cccc4OC)C3)c3cc(Cl)ccc32)C1 [Example 131]
IC50 [1, 8]: 37 µM
IC50 [2, 5]: 5.54 µM
IC50 [2, 6]: 1.04 µM
IC50 [3, 9]: 50.6 µM
